Results: ChEMBL document CHEMBL1201862, “PubChem BioAssay data set” (2004)
The source made the active and inactive calls.

Experiments:
[1] = biological target: Genome polyprotein (Hepatitis C virus, UniProt Q2Q167); assay: HCV core protein dimerization inhibitors, dose response, biochemical, TR-FRET (AID 2159); design: species or system Hepacivirus hominis;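 note: blocks dimerization of HCV core protein measured by TR-FRET between tagged core106 pairs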
[2] = biological target: T1, SUMO-activating enzyme (Homo sapiens, UniProt Q9UBT2); assay: SUMOylation inhibitor hit validation, confirmation, SUMOylation inhibitor project, biochemical, AlphaScreen (AID 2018); type: functional
T1 sequence (Q9UBE0 whole entry): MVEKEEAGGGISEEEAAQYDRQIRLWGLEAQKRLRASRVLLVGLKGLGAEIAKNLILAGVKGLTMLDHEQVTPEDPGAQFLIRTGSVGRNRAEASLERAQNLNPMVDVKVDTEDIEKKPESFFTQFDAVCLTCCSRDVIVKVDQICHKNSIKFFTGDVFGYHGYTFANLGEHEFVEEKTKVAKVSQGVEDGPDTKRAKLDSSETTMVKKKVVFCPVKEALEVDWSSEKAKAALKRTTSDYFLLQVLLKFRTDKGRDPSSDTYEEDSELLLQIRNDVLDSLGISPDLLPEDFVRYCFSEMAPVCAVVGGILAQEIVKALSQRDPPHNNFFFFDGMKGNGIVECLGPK
T1 sequence (Q9UBT2 whole entry): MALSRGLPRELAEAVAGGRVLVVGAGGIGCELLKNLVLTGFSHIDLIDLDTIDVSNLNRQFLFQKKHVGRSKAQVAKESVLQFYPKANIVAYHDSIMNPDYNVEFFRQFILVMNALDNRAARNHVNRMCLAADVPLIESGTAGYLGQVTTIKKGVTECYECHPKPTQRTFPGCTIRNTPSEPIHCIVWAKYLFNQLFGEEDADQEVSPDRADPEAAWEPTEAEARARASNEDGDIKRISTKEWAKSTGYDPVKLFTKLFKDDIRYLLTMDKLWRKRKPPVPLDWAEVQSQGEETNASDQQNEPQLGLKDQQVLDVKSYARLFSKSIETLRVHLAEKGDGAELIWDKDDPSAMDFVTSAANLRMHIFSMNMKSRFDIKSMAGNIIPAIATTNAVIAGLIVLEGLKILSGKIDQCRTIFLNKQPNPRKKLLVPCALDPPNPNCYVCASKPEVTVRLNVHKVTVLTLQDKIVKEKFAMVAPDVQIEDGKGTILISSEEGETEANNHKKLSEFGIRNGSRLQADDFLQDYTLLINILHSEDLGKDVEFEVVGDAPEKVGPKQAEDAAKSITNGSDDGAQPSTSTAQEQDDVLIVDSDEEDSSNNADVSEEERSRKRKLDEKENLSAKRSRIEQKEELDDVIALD

[3] = biological target: T1, SUMO-activating enzyme; assay: inhibitors of in vitro SUMOylation cascade, primary screen, biochemical, HTRF, uHTS (AID 2006); type: protein-complex assay
[4] = biological target: T2, Voltage-gated N-type calcium channel alpha-1B subunit/Amyloid beta A4 precursor protein-binding family A member 1 (Homo sapiens, UniProt Q00975+Q02410); type: protein assay
T2 sequence (Q00975 whole entry): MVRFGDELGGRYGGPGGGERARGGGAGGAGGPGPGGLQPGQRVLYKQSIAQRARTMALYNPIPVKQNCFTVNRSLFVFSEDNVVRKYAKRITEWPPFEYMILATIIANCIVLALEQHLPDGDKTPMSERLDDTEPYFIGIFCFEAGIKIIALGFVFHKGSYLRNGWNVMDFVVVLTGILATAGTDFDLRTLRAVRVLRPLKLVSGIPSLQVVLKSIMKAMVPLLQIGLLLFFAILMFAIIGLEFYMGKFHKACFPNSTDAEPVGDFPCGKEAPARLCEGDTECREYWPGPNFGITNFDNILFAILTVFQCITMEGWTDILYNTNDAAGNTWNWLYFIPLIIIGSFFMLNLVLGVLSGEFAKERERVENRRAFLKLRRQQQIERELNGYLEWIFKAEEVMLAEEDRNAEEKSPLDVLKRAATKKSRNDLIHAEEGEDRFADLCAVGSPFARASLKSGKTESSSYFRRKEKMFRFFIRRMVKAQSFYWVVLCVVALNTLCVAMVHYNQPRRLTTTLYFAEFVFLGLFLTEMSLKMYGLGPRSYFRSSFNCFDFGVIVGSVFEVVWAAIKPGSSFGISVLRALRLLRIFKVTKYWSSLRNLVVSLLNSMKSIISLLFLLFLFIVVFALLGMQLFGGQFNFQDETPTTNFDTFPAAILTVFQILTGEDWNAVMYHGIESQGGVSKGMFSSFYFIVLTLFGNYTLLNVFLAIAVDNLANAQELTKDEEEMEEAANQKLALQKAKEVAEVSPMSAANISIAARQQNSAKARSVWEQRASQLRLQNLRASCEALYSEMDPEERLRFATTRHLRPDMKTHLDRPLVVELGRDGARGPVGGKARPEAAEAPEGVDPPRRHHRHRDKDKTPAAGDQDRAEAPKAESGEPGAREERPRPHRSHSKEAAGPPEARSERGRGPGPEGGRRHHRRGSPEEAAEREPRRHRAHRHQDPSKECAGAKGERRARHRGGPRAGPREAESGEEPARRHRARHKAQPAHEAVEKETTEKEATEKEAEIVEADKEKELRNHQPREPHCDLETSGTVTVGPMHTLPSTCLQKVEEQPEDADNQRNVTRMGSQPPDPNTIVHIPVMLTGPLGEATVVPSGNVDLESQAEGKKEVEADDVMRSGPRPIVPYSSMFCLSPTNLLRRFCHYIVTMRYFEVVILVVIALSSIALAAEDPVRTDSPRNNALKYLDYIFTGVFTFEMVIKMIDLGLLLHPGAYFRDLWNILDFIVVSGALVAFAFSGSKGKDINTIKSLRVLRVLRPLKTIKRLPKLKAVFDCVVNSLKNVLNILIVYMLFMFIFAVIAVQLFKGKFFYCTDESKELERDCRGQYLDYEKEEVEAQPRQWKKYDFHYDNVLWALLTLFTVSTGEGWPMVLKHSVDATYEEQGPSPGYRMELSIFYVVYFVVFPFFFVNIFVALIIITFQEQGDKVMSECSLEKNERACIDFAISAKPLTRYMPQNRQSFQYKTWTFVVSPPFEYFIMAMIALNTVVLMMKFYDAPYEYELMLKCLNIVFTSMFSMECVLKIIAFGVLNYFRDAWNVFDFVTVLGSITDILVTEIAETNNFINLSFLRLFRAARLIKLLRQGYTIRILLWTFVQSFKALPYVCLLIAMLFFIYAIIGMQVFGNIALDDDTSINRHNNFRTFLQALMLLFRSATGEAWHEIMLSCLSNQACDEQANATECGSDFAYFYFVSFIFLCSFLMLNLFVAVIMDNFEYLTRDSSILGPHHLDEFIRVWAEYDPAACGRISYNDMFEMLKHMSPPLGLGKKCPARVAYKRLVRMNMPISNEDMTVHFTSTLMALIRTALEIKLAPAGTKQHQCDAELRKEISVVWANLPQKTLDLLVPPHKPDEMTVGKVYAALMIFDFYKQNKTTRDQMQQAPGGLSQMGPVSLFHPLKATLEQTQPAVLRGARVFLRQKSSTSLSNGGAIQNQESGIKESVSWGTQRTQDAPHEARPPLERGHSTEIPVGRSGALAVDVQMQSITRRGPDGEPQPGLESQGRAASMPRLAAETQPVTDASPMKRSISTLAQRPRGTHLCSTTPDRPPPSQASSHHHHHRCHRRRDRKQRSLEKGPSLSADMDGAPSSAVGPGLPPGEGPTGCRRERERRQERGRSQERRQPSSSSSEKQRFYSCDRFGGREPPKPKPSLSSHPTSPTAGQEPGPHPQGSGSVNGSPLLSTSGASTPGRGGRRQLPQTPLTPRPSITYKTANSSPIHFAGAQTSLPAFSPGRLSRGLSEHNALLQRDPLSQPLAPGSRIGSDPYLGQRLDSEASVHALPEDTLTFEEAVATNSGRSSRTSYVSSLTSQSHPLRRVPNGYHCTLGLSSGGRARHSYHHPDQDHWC
T2 sequence (Q02410 whole entry): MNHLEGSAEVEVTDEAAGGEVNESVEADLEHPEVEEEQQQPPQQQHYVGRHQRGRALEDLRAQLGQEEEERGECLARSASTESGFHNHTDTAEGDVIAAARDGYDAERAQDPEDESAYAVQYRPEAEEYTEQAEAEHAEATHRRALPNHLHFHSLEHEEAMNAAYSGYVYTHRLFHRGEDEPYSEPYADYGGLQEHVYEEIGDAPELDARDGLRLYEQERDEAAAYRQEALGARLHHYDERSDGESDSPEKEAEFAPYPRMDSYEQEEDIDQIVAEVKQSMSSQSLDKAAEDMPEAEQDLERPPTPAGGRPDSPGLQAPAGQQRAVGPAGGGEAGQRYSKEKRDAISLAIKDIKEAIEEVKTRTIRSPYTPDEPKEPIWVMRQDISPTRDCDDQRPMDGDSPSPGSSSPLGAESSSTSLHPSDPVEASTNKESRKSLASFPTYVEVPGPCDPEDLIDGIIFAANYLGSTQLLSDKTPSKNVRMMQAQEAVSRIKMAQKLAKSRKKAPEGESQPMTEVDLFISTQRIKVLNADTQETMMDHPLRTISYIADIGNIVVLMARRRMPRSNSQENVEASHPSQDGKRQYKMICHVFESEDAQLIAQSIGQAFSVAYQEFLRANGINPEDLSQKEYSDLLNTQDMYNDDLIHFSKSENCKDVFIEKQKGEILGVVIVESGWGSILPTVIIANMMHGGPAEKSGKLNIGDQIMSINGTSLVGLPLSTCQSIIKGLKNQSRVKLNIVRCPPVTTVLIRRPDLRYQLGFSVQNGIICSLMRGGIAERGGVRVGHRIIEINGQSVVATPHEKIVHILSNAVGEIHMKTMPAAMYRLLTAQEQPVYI

[5] = biological target: Paired box protein Pax-8 (Homo sapiens, UniProt Q06710); assay: inhibitors of PAX8-driven TPO luciferase reporter, dose response, RMG-I cells, cherry-pick (AID 687027); type: functional, cell-based;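 note: luciferase reporter driven by Pax8 target thyroperoxidase promoter measured by SteadyGlo luminescence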
[6] = biological target: T2, Voltage-gated N-type calcium channel alpha-1B subunit/Amyloid beta A4 precursor protein-binding family A member 1; type: protein assay; remark: listed apart in the source
[7] = biological target: Caspase-7 (Homo sapiens, UniProt P55210); assay: procaspase-7 activators, dose response, counter-screen for procaspase-3 activator project, biochemical, absorbance (AID 489013)
[8] = biological target: T3, Caspase-3 (Homo sapiens, UniProt P42574); assay: procaspase-3 activators, dose response, biochemical, absorbance (AID 489014)
T3 sequence (P42574 whole entry): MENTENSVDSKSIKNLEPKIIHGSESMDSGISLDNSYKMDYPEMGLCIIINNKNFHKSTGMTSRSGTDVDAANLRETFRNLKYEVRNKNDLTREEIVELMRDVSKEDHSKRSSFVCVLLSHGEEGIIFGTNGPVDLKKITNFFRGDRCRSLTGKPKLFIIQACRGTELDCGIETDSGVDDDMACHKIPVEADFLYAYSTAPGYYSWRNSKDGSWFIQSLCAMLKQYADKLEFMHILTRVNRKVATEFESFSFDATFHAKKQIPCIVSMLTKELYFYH

[9] = tested on: A-375; assay: A375 melanoma cell viability reduction, dose response, counter-screen for MITF modulator project, cherry-pick samples, set 2 (AID 540335); type: functional, cell-based; conditions: Homo sapiens
[10] = biological target: E3 ubiquitin-protein ligase Mdm2/Protein Mdm4 (Homo sapiens, UniProt O15151+Q00987); assay: Mdm2-MdmX interaction inhibitors, dose response, luminescence detection (AID 504593); type: functional
[11] = biological target: T4, Microphthalmia-associated transcription factor (Homo sapiens, UniProt O75030); assay: TRPM1 promoter luciferase signal decrease, dose response, MITF inhibitor project, cell-based, SK-MEL-5, cherry-picked, set 3 (AID 493073); type: functional
T4 sequence (O75030 whole entry): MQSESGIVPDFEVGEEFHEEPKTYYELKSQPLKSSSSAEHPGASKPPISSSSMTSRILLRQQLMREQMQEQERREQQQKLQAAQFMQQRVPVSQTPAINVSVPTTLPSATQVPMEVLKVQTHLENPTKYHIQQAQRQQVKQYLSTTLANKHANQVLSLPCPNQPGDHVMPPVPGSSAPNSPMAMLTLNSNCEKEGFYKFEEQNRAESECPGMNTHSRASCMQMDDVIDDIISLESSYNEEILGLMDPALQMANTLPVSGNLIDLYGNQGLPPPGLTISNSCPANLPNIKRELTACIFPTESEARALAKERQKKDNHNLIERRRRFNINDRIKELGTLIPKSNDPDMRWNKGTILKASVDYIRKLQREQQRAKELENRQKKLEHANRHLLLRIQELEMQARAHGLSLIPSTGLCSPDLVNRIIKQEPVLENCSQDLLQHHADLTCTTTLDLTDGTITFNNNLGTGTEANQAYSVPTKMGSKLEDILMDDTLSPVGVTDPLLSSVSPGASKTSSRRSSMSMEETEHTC

[12] = biological target: G-protein coupled receptor 35 (Homo sapiens, UniProt Q9HC97); assay: GPR35 antagonists blocking zaprinast-driven arrestin recruitment, primary screen, imaging, U2OS, beta-arrestin-GFP, zaprinast agonist (AID 2058); type: functional;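 note: antagonist potency meaning inhibition of agonist-induced arrestin redistribution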
[13] = biological target: Troponin, cardiac muscle (Homo sapiens, UniProt P19429+P45379+P63316); assay: inhibitors of cardiac thin filament calcium sensitivity, dose response, biochemical, fluorescence, cardiac regulated thin filaments, triplicate IC50 (AID 504742); type: protein-complex assay
[14] = biological target: T5, Histone-lysine N-methyltransferase NSD2 (Homo sapiens, UniProt O96028); type: biochemical
T5 sequence (O96028 whole entry): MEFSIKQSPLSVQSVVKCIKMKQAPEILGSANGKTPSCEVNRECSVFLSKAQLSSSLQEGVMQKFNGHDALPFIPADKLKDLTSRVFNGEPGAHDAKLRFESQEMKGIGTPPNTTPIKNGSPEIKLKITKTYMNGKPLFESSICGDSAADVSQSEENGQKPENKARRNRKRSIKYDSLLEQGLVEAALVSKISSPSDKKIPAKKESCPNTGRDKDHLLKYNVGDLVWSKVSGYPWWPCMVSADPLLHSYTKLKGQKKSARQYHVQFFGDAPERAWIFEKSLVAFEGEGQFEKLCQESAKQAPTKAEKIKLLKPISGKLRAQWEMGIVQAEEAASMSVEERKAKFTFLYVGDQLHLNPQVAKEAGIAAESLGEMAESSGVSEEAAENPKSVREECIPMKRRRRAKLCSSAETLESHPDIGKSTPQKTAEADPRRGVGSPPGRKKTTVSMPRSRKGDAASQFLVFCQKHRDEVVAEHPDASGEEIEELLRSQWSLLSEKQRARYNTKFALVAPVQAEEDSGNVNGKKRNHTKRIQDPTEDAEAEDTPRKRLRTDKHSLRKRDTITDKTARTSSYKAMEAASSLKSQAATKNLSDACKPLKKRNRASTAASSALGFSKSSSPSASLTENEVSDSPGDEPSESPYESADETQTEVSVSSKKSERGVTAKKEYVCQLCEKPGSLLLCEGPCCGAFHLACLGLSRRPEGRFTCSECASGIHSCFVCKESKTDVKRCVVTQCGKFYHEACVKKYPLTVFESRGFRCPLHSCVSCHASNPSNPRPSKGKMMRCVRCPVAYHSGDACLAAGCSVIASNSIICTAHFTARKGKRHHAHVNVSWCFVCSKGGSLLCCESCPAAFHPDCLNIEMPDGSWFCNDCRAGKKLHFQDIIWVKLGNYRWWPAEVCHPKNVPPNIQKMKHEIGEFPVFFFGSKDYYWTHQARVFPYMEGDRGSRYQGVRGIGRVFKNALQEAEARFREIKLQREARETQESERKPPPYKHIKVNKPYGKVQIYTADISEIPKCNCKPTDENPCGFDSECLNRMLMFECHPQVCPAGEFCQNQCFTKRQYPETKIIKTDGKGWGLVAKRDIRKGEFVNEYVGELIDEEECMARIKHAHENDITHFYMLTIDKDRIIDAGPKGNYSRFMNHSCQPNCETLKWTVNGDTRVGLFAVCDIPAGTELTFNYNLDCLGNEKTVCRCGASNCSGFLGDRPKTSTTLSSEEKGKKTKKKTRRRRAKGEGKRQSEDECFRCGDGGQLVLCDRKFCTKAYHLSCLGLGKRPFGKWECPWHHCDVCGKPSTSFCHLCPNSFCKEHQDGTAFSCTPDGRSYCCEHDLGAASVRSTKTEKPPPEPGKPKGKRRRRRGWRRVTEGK

[15] = biological target: Mu-type opioid receptor (Homo sapiens, UniProt P35372); assay: SAR Analysis of Antagonists of the MOR Receptor using an Image-Based Assay - Set 3. [Related pubchem assays (depositor defined):AID1777, AID1785, AID1786, AID1966, AID2133, AID2136, AID2284, AID2285, AID2420]; type: functional
Mu-type opioid receptor, sequence (P35372 whole entry): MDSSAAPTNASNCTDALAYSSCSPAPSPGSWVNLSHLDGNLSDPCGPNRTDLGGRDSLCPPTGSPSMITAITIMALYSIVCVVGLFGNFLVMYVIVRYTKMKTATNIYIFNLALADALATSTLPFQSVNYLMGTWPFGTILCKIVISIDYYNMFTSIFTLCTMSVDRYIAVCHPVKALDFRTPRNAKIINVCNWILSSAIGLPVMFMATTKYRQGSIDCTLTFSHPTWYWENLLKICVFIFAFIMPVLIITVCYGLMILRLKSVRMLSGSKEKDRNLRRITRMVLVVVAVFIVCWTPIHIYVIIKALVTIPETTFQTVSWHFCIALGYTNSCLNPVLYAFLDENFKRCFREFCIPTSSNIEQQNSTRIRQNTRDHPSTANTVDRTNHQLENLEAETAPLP

[16] = biological target: T6, Kappa-type opioid receptor (Homo sapiens, UniProt P41145); assay: SAR analysis of small molecule antagonists of the kappa opioid receptor via a luminescent beta-arrestin assay - Set 6. [Related pubchem assays (depositor defined):AID1777, AID1778, AID1785, AID1786, AID1966, AID2133, AID2136, AID2285]; type: functional
T6 sequence (P41145 whole entry): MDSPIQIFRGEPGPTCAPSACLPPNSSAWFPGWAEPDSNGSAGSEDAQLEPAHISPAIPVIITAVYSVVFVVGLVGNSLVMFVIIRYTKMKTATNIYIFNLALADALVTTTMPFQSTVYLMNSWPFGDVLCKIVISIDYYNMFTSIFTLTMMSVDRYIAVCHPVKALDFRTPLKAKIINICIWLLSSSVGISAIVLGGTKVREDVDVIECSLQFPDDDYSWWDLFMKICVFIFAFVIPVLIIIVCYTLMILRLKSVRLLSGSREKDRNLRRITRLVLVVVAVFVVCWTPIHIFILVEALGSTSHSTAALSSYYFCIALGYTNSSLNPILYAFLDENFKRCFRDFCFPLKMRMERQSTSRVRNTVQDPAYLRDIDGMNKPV

[17] = biological target: T6, Kappa-type opioid receptor; assay: SAR analysis of Antagonists of the Kappa Opioid Receptor (KOR) using an Image-Based Assay - Set 4. [Related pubchem assays (depositor defined):AID1777, AID1785]; type: functional
[18] = biological target: Delta-type opioid receptor (Homo sapiens, UniProt P41143); assay: SAR Analysis of Antagonists of the DOR Receptor using an Image-Based Assay - Set 3. [Related pubchem assays (depositor defined):AID1777, AID1785]; type: functional;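 note: U2OS cells expressing DOR1 and beta-arrestin GFP stimulated with 100 nM SNC80; imaging of GFP-tagged beta-arrestin moving into spots after receptor activation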
[19] = biological target: T6, Kappa-type opioid receptor; assay: SAR analysis of small molecule antagonists of the kappa opioid receptor via a luminescent beta-arrestin assay - Set 4. [Related pubchem assays (depositor defined):AID1777, AID1778, AID1785, AID1786, AID1966, AID2133, AID2136, AID2285]; type: functional
[20] = biological target: T6, Kappa-type opioid receptor; assay: SAR analysis of small molecule antagonists of the kappa opioid receptor via a luminescent beta-arrestin assay - Set 3. [Related pubchem assays (depositor defined):AID1777, AID1778, AID1785, AID1786, AID1966, AID2133, AID2136, AID2285, AID2495]; type: functional
[21] = biological target: T6, Kappa-type opioid receptor; assay: SAR analysis of Antagonists of the Kappa Opioid Receptor (KOR) using an Image-Based Assay - Set 3. [Related pubchem assays (depositor defined):AID1777, AID1785]; type: functional
[22] = biological target: T7, Streptokinase A (Streptococcus pyogenes serotype M1, UniProt P10520); assay: S. pyogenes streptokinase expression inhibitors, potency, dose response, plasminogen activation absorbance, OD405 (AID 1914); type: functional, Streptococcus pyogenes M1 GAS;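 note: secreted streptokinase activity via plasminogen activation per viability signal from cell pellet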
T7 sequence (P10520 whole entry): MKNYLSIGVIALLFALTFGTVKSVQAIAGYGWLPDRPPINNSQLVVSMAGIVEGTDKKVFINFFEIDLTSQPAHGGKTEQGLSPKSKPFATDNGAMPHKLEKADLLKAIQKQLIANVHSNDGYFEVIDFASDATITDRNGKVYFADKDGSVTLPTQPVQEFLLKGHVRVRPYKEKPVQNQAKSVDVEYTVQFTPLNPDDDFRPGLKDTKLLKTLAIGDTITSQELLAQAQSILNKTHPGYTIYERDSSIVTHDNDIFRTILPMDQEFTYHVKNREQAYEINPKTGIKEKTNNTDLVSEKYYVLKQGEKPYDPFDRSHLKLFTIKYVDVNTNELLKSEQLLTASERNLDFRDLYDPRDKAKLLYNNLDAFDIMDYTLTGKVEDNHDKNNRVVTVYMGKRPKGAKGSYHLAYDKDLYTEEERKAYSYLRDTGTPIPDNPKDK

[23] = biological target: DNA dC->dU-editing enzyme APOBEC-3A (Homo sapiens, UniProt P31941); assay: APOBEC3A DNA deaminase inhibitors, dose response, biochemical (AID 504722); type: functional
[24] = biological target: DNA dC->dU-editing enzyme APOBEC-3G (Homo sapiens, UniProt Q9HC16); assay: Dose Response confirmation of small molecule APOBEC3G DNA Deaminase Inhibitors via a fluorescence-based single-stranded DNA deaminase assay. [Related pubchem assays (depositor defined):AID493012, AID493028]; type: functional
[25] = tested on: Streptococcus sp. 'group A'; assay: growth inhibition of control SK(-) GAS strain, dose response, counter-screen for streptokinase expression inhibitor project, luminescence, kanamycin, BacTiterGlo, confirmation (AID 1900); type: functional, organism-based
[26] = tested on: Streptococcus; assay: Group A Streptococcus viability loss, dose response, counter-screen for streptokinase expression inhibitor project, luminescence, BacTiterGlo (AID 1915); type: functional, organism-based;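 note: potency for reduction of bacterial viability or growth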

Genome polyprotein, sequence (Q2Q167 whole entry): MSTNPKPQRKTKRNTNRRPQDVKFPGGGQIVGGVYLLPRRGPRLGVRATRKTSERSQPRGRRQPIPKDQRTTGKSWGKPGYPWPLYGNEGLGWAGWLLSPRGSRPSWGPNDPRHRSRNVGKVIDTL

## COc1ccc(-c2nc3c(c(SCC(=O)Nc4cccc(O)c4)n2)Cc2c(CO)cnc(C)c2O3)cc1
[1]
  IC50: > 49.8 µM (not active)
[2]
  IC50: 9.01 µM (active)
[3]
  IC50: 32.8 µM (active)
[4]
  IC50: > 50 µM (inactive)
[5]
  AC50: 67.6 µM (active)
[6]
  IC50: 28.1 µM (active)

## Cc1ccc(C2Nc3ccc4ccccc4c3C3=C2C(=O)CC(C)(C)C3)o1 (stereo not drawn)
[7]
  EC50: > 85.3 µM (inactive)
[8]
  EC50: > 85.3 µM (inactive)

## CCN(CC)S(=O)(=O)c1ccc(NC(=O)c2cccnc2Cl)c(NC(=O)c2cccnc2Cl)c1
[9]
  AC50: 23.2 µM (active)
[10]
  IC50: 4.18 µM (active)
[11]
  AC50: 7.02 µM (active)
[12]
  IC50: 8.8 µM (active)

## CCOc1ccc2nc3cc(N=Nc4ccc(N)nc4N)ccc3c(N)c2c1
[13]
  IC50: 12.7 µM (inactive)
[14]
  AC50: > 20 µM (inactive)

## Cc1ccc(S(=O)(=O)NCc2ccc(C(=O)NCCN(Cc3ccccc3)C(C)(C)C)cc2)cc1
[15]
  IC50: 1.39 µM (active)
[16]
  IC50: 0.0535 µM (active)
[17]
  IC50: 0.0287 µM (active)
[18]
  IC50: > 32 µM (inactive)
[19]
  IC50: 0.0763 µM (active)

## O=C(Cn1c(=O)c2cccn2c2cccnc21)NCCCN1CCCCC1
[15]
  IC50: > 32 µM (inactive)
[20]
  IC50: > 20 µM (inactive)
[21]
  IC50: > 32 µM (inactive)
[18]
  IC50: > 32 µM (inactive)

## COc1ccc(OC)c(/C=N/n2c(S)nnc2-c2[nH]nc3c2CCC3)c1
[22]
  EC50: 18.9 µM (inconclusive)
[23]
  IC50: > 100 µM (inactive)
[24]
  IC50: 2.88 µM (active)
[25]
  EC50: > 150 µM (not active)
[26]
  EC50: > 150 µM (not active)
